In PMC4012441, “Nature’s Lab for Derivatization: New and Revised Structures of a Variety of Streptophenazines Produced by a Sponge-Derived Streptomyces Strain” (Marine Drugs, 2014) one finds IC50 data, which are given here for three compounds.

T1 sequence (Q07343 whole entry): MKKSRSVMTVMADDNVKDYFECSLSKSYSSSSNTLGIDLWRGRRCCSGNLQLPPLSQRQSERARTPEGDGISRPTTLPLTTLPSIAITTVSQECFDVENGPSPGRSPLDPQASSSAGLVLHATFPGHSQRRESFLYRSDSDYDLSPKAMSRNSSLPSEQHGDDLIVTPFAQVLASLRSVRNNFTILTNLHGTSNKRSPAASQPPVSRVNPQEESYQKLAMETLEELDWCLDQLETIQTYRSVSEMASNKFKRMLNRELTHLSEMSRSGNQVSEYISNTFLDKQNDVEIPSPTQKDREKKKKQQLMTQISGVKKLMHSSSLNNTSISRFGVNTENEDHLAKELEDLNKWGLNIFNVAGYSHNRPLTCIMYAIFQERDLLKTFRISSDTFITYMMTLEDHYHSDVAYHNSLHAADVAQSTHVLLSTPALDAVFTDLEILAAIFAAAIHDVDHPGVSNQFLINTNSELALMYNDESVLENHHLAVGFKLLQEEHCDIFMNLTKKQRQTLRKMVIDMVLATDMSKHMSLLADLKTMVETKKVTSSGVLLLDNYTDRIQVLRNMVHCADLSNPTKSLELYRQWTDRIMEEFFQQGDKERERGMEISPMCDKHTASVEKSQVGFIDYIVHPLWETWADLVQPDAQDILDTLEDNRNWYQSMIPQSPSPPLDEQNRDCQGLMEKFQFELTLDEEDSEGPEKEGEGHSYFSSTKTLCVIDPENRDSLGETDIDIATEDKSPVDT

The assay addresses T1, PDE 4B (Homo sapiens, UniProt Q07343).
T1 construct: gene PDE4B
As to the kind of experiment: PDE4B enzyme inhibition assay (according to Schulz et al.). In kind it is biochemical.
A word on the IC50: it is the concentration that gives 50% inhibition. `COC(=O)c1cccc2nc3c(C(O)C(CCCC(C)C(C)O)C(=O)OC)cccc3nc12` (stereo not drawn) [compound 2, Streptophenazine J] displayed an IC50 of 12 µM.

`CCC(C)CCC[C@@H](C(=O)OC)[C@H](O)c1cccc2nc3c(C(=O)O)cccc3nc12` (stereo partly drawn) [compound 3, Streptophenazine K] registered a concentration for half-maximal inhibition (IC50) of 12.2 µM.

The compound `CCC(C)CCC[C@@H](C(=O)OC)[C@H](O)c1cccc2nc3c(C(=O)OC)cccc3nc12` (stereo partly drawn) [compound 9, Streptophenazine G] yielded an IC50 of 5.2 µM.
